The values that follow come from ChEMBL document CHEMBL4420080, “Inhibitors of sox18 protein activity for treating angiogenesis- and/or lymphangiogenesis-related diseases” (2018).

In data set [1] the target is T1, Transcription factor SOX-18 (Mus musculus) (UniProt P43680).
T1 sequence (whole entry): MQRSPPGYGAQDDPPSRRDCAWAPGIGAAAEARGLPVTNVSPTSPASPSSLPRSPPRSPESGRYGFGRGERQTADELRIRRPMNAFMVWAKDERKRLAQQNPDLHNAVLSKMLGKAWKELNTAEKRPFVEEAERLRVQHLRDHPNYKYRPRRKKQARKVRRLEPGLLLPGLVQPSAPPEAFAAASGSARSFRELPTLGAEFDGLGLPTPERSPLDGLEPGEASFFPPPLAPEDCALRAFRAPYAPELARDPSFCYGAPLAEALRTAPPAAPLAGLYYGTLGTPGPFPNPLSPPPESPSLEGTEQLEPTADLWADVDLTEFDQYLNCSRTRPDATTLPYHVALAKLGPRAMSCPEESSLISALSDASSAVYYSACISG
The experiment in a line: Competitive binding affinity to full-length mouse SOX18 expressed in Sf9 cells assessed as reduction in SOX1 8- DNA binding by measuring FP-bound fraction at 200 uM using FAM-labelled Prox1 -DNA element incubated for 5 mins in dark at room temperature, 10 mins at 37 degC and 30 mins at room temperature by fluorescence polarization assay relative to control. Also noted: scale not given: the % may be the effect or the level left. In general terms: Polarisation of emitted light reports the rotation of a fluorescent probe.

In data set [2] the target is T1, Transcription factor SOX-18 (Mus musculus). Put plainly: Competitive binding affinity to full-length mouse SOX18 expressed in Sf9 cells assessed as reduction in SOX1 8- DNA binding using FAM-labelled Prox1 -DNA element at 1 to 1000 uM incubated for 5 mins in dark at room temperature, 10 mins at 37 degC and 30 mins at room temperature by fluorescence polarization assay.

Data set [3] is described as follows: Critical micellar concentration of the compound. In kind it is physicochemical.
A short description of data set [4]: Cytotoxicity in human HepG2 cells assessed as reduction in cell viability incubated for 24 hrs by Alamar blue dye based assay. On the technique in general: The colour change of resazurin is a common sign of viable cells or microbes.
Data set [5] can be described thus: Cytotoxicity in African green monkey COS7 cells assessed as reduction in cell viability incubated for 24 hrs by Alamar blue dye based assay. Particulars: chlorocebus aethiops. Also noted: species or system COS-7.
The target in data set [6] is T1, Transcription factor SOX-18 (Mus musculus). Put plainly: Competitive binding affinity to full-length mouse SOX18 expressed in Sf9 cells assessed as reduction in SOX1 8- DNA binding by measuring FP-bound fraction at 50 uM using FAM-labelled Prox1 -DNA element incubated for 5 mins in dark at room temperature, 10 mins at 37 degC and 30 mins at room temperature by fluorescence polarization assay relative to control. The arrangement: scale not given: the % may be the effect or the level left.

The nature of data set [7]: Cytotoxicity in HEK293 cells assessed as reduction in cell viability incubated for 24 hrs by Alamar blue dye based assay. Particulars: human.
In the next data set the test system is 4T1.2. Put plainly: Antitumor activity against mouse 4T1.2 cells implanted in BALB/c mouse assessed as median disease latency time at 25 mg/kg/day for 10 days (Rvb =33 days). Format: functional.

Each structure is given as a SMILES string. Calls of active or inactive are those of the source. The calls are words filed in the database; no cut-off is given here.

For orientation: CC50 means the concentration giving 50% cytotoxicity.

As for `COc1cc(O)c(C(=O)O)c(C=Cc2ccc3ccccc3c2)c1` (mixture of isomers), in data set [1], the Activity worked out at 19.8%.
Turning to `O=C(O)c1ccccc1Nc1cccc(C(F)(F)F)c1`, in data set [2], the outcome was Active.
`COC(=O)c1c(O)cccc1CCc1ccc2ccccc2c1` returned a CMC in data set [3] of 20 µM.
Still for that read-out and setting: the value for `CCCCCCCCCc1cccc(OC)c1C(=O)OC` was 20 µM.
Take `COc1cccc(C=Cc2ccc3ccccc3c2)c1C(=O)O` (mixture of isomers): in data set [4], the CC50 at 24 h was more than 100 µM.
`COc1cccc(CCCCCCc2ccccc2)c1C(=O)O` had a CMC in data set [3] of more than 1000 µM. Besides, the CC50 at 24 h in data set [5] was more than 200 µM.
On to `Cc1cc(O)c(C(=O)O)c(CCc2ccc3ccccc3c2)c1`, for which, in data set [4], the CC50 at 24 h turned out to be 377 µM.
`Cc1cccc2c(=O)c3c(O)cc(O)cc3oc12`: the CMC in data set [3] was more than 1000 µM. The CC50 at 24 h in data set [5] is more than 200 µM.
Take `CCN(CC)C(=O)c1c(CCc2ccc3ccccc3c2)cccc1OC`: the CC50 at 24 h in data set [4] turned out to be 38.5 µM; in data set [7], 62.6 µM. Also, the Activity in data set [6] was 100%; in data set [1], 117%.
The molecule `O=C1N=C(N2CCCC2)S/C1=C/c1ccc(O)cc1O` displayed a CMC in data set [3] of more than 1000 µM. The CC50 at 24 h in data set [5] was more than 200 µM.
As to `O=C(O)c1cccnc1Nc1cccc(C(F)(F)F)c1`, in data set [2], the result was Active.
Take `CCN(CC)C(=O)c1c(CCc2ccc3ccccc3c2)cc(OC)cc1OC`: the CC50 at 24 h in data set [4] stood at 35.8 µM; in data set [7], 85.8 µM. Further, the Activity in data set [6] turned out to be 97.3%; in data set [1] it was 107%.
`CCCCCCCCCc1cccc(O)c1C(=O)OC` had a CMC in data set [3] of 20 µM.
Take `CC(C)CCCC(C)CCCCc1cccc(O)c1C(=O)O` (stereo unspecified): in data set [3], the CMC turned out to be 30 µM.
On the same count and under the same terms, the same measure for `COC(=O)c1c(O)cccc1CCCCC(C)CCCC(C)C` (stereo unspecified): 20 µM.
Regarding `O=C(O)c1c(O)cccc1COCCc1ccccc1`, the CC50 at 24 h in data set [5] was more than 200 µM.
For `Cc1ccc(Cl)c(Nc2ccccc2C(=O)O)c1Cl`, in data set [2], the outcome was Active.
In data set [3], `O=C(COc1ccc2ccccc2c1)c1ccc(O)cc1O` displayed a CMC of more than 1000 µM. Further, the CC50 at 24 h in data set [5] was 98.6 µM.
In the case of `CC(=O)Oc1ccccc1C(=O)O` [ASPIRIN], the Time in the data set with 4T1.2 was 44 days.
In turn, `COc1ccc(OCC(=O)c2ccc(O)cc2O)cc1` came in with a CMC in data set [3] of more than 1000 µM. For the same molecule, the CC50 at 24 h in data set [5] is more than 200 µM.
